Here are results for 17 compounds from patent US20250163066A1, “PROTACs of MALT1” (TEGID THERAPEUTICS, INC., priority 2022, published 2025).

In assay [1] the test system is IL-2 MALT1-dependent release in Jurkat cells. Nature of the assay: cells. It is filed as cell-based. Particulars: Homo sapiens; for EC50: Jurkat cells stimulated with antiCD3/antiCD28 for 24 h, IL-2 ELISA, read-out: EC50, IL-2 MALT1-dependent release inhibition; for CC50: Jurkat, 24 h, read-out: CC50 (IL-2 MALT1-dependent release inhibition). As for the experimental part: Jurkat cells (ATCC, USA) (100,000 cells/well in a 96 well flat-bottom plate (Greiner, #655061) were cultured in RPMI 1640 supplemented with 10% FBS at 37° C., 5% CO2 in a humidified cell culture incubator for 0.5-1 h. Then 10 μl/well 15× compound (or DMSO) was added in duplicates. Cells were incubated with compound in a humidified cell culture incubator for 0.5-1 h. After the incubation, 10 μl/well of 15× human antiCD3 HIT3a antibody (BioLegend) together with 10 μl/well of 15× human antiCD28 antibody (Invitrogen) were added to stimulate Jurkat cells for 24 h. After 24 h of stimulation, supernatants were collected and IL-2 levels in supernatants were assessed using IL-2 ELISA kit (Vector-Best, Russia).
(An ELISA detects its analyte on a solid surface through an enzyme-linked reagent.)

The target of assay [2] is MALT1 (Homo sapiens (Human), UniProt Q9UDY8). The experiment in a line: MALT1 enzymatic activity inhibition (fluorescence, Ac-LRSR-AMC substrate). Particulars: recombinant MALT1 1.5 ng/μl, Ac-LRSR-AMC 1 μM. It is filed as biochemical. In short, it runs like this:
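Recombinant human MALT1 (1.5 ng/μl final) preincubated 10 min at rt with compounds in 50 mM HEPES pH 7.2-7.4, 100 mM NaCl, 900 mM sodium citrate, 10 mM DTT; 1 μM Ac-LRSR-AMC then added. AMC fluorescence read at start and after 30 min 37 °C plus 30 min rt; difference gives signal, % inhibition fitted to IC50.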

One may read the EC50 as the concentration that produces a half-maximal response. One may read the CC50 as the concentration giving 50% cytotoxicity.

Chain of MALT1 (Q9UDY8 whole entry): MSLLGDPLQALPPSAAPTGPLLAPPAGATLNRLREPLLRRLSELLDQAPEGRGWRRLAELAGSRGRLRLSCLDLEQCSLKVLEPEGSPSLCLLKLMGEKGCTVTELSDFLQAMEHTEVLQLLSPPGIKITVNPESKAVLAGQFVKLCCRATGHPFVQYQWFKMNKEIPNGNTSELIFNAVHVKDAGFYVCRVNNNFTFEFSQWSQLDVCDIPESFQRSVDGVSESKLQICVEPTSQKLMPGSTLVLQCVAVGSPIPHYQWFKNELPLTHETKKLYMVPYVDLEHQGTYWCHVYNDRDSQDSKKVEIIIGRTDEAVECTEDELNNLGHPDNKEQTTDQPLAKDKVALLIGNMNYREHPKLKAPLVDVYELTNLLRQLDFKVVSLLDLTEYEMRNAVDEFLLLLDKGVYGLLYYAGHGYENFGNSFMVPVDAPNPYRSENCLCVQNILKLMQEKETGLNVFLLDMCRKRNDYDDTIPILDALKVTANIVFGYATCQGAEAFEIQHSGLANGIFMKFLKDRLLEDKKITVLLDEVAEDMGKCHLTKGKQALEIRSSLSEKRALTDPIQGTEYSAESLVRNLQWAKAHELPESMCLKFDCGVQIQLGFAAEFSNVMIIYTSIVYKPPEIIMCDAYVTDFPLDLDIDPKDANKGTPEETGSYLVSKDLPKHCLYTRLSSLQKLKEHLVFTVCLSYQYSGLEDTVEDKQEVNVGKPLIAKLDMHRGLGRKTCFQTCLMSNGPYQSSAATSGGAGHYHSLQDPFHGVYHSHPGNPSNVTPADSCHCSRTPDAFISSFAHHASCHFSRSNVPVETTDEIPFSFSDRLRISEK

With `Cc1cc(NC(=O)Nc2cnc3ccnn3c2C(C)C)cnc1-c1noc(CCCCCCN2CCN(c3ccc4c(c3)CN(C3CCC(=O)NC3=O)C4=O)CC2)n1` (stereo not shown) [Compound 92, 1-[6-[5-[6-[4-[2-(2,6-dioxo-3-piperidyl)-1-oxo-isoindolin-5-yl]piperazin-1-yl]hexyl]-1,2,4-oxadiazol-3-yl]-5-methyl-3-pyridyl]-3-(7-isopropylpyrazolo[1,5-a]pyrimidin-6-yl)urea], the EC50 in assay [1] was less than 500 nM; in assay [2], no more than 0.2 µM.
The corresponding values for `CC(C)c1c(NC(=O)Nc2cnc(-c3noc(CCCCCCN4CCN(c5ccc6c(c5)CN(C5CCC(=O)NC5=O)C6=O)CC4)n3)c(Cl)c2)cnc2ccnn12` (stereo not shown) [Compound 93, 1-[5-chloro-6-[5-[6-[4-[2-(2,6-dioxo-3-piperidyl)-1-oxo-isoindolin-5-yl]piperazin-1-yl]hexyl]-1,2,4-oxadiazol-3-yl]-3-pyridyl]-3-(7-isopropylpyrazolo[1,5-a]pyrimidin-6-yl)urea] are less than 500 nM and no more than 0.2 µM.
Take `O=C1CCC(N2Cc3cc(N4CCN(C(=O)CCCCc5nc(-c6ncc(NC(=O)Nc7cnc8ccnn8c7C7CCCC7)cc6C(F)(F)F)no5)CC4)ccc3C2=O)C(=O)N1` (stereo not shown) [Compound 96, 1-(7-cyclopentylpyrazolo[1,5-a]pyrimidin-6-yl)-3-[6-[5-[5-[4-[2-(2,6-dioxo-3-piperidyl)-1-oxo-isoindolin-5-yl]piperazin-1-yl]-5-oxo-pentyl]-1,2,4-oxadiazol-3-yl]-5-(trifluoromethyl)-3-pyridyl]urea]: the values for the EC50 in assay [1] and in assay [2] were less than 500 nM and no more than 0.2 µM, respectively.
Regarding `O=C1CCC(N2Cc3cc(N4CCN(C(=O)CCCCCc5nc(-c6ncc(NC(=O)Nc7cnc8ccnn8c7C7CCCC7)cc6C(F)(F)F)no5)CC4)ccc3C2=O)C(=O)N1` (stereo not shown) [Compound 104, 1-(7-cyclopentylpyrazolo[1,5-a]pyrimidin-6-yl)-3-[6-[5-[6-[4-[2-(2,6-dioxo-3-piperidyl)-1-oxo-isoindolin-5-yl]piperazin-1-yl]-6-oxo-hexyl]-1,2,4-oxadiazol-3-yl]-5-(trifluoromethyl)-3-pyridyl]urea], the EC50 in assay [1] was less than 500 nM; in assay [2] it was no more than 0.2 µM.
As for `O=C1CCC(N2Cc3cc(N4CCN(C(=O)CCCc5nc(-c6ncc(NC(=O)Nc7cnc8ccnn8c7C7CCCC7)cc6C(F)(F)F)no5)CC4)ccc3C2=O)C(=O)N1` (stereo not shown) [Compound 106, 1-(7-cyclopentylpyrazolo[1,5-a]pyrimidin-6-yl)-3-[6-[5-[4-[4-[2-(2,6-dioxo-3-piperidyl)-1-oxo-isoindolin-5-yl]piperazin-1-yl]-4-oxo-butyl]-1,2,4-oxadiazol-3-yl]-5-(trifluoromethyl)-3-pyridyl]urea], the EC50 in assay [1] was less than 500 nM; in assay [2] it was no more than 0.2 µM.
`Cc1cc(NC(=O)Nc2cnc3ccnn3c2C2CCCCC2)cnc1-c1noc(CCCCCC(=O)N2CCN(c3ccc4c(c3)CN(C3CCC(=O)NC3=O)C4=O)CC2)n1` (stereo not shown) [Compound 107, 1-(7-cyclohexylpyrazolo[1,5-a]pyrimidin-6-yl)-3-[6-[5-[6-[4-[2-(2,6-dioxo-3-piperidyl)-1-oxo-isoindolin-5-yl]piperazin-1-yl]-6-oxo-hexyl]-1,2,4-oxadiazol-3-yl]-5-methyl-3-pyridyl]urea]: the EC50 in assay [1] was 1000 to 5000 nM; in assay [2] it was no more than 0.2 µM.
`O=C1CCC(N2Cc3cc(N4CCN(CCCCCc5nc(-c6ncc(NC(=O)Nc7cnc8ccnn8c7C7CCCC7)cc6C(F)(F)F)no5)CC4)ccc3C2=O)C(=O)N1` (stereo not shown) [Compound 108, 1-(7-cyclopentylpyrazolo[1,5-a]pyrimidin-6-yl)-3-[6-[5-[5-[4-[2-(2,6-dioxo-3-piperidyl)-1-oxo-isoindolin-5-yl]piperazin-1-yl]pentyl]-1,2,4-oxadiazol-3-yl]-5-(trifluoromethyl)-3-pyridyl]urea]: the EC50 in assay [1] is less than 500 nM; in assay [2] it was no more than 0.2 µM.
In the case of `Cc1cc(NC(=O)Nc2cnc3ccnn3c2C2CCCCC2)cnc1-c1noc(CCCCCC(=O)Nc2ccc3c(c2)CN(C2CCC(=O)NC2=O)C3=O)n1` (stereo not shown) [Compound 109, 6-[3-[5-[(7-cyclohexylpyrazolo[1,5-a]pyrimidin-6-yl)carbamoylamino]-3-methyl-2-pyridyl]-1,2,4-oxadiazol-5-yl]-N-[2-(2,6-dioxo-3-piperidyl)-1-oxo-isoindolin-5-yl]hexanamide], the cytotoxic concentration (CC50) in assay [1] was less than 500 nM. Besides, the EC50 in assay [2] fell in the range of 0.2 to 0.5 µM.
As to `CC(C)c1c(NC(=O)Nc2ccc(-c3nnc(CCCCCC(=O)N4CCN(c5ccc6c(c5)CN(C5CCC(=O)NC5=O)C6=O)CC4)o3)nc2)cnc2ccnn12` (stereo not shown) [Compound 110, 1-[6-[5-[6-[4-[2-(2,6-dioxo-3-piperidyl)-1-oxo-isoindolin-5-yl]piperazin-1-yl]-6-oxo-hexyl]-1,3,4-oxadiazol-2-yl]-3-pyridyl]-3-(7-isopropylpyrazolo[1,5-a]pyrimidin-6-yl)urea], in assay [1], the CC50 was greater than 5000 nM. Moreover, the EC50 in assay [2] lay within 1 to 5 µM.
Turning to `O=C1CCC(N2Cc3cc(N4CCN(C(=O)CCCCCc5nnc(-c6ccc(NC(=O)Nc7cnc8ccnn8c7C7CCCC7)cn6)o5)CC4)ccc3C2=O)C(=O)N1` (stereo not shown) [Compound 111, 1-(7-cyclopentylpyrazolo[1,5-a]pyrimidin-6-yl)-3-[6-[5-[6-[4-[2-(2,6-dioxo-3-piperidyl)-1-oxo-isoindolin-5-yl]piperazin-1-yl]-6-oxo-hexyl]-1,3,4-oxadiazol-2-yl]-3-pyridyl]urea], the half-maximal cytotoxic concentration (CC50) in assay [1] is greater than 5000 nM. Further, the 50% effective concentration (EC50) in assay [2] was in the range of 1 to 5 µM.
Consider `Cc1cc(NC(=O)Nc2cnc3ccnn3c2C2CCC2)cnc1-c1noc(CCCCC(=O)N2CCN(c3ccc4c(c3)CN(C3CCC(=O)NC3=O)C4=O)CC2)n1` (stereo not shown) [Compound 112, 1-(7-cyclobutylpyrazolo[1,5-a]pyrimidin-6-yl)-3-[6-[5-[5-[4-[2-(2,6-dioxo-3-piperidyl)-1-oxo-isoindolin-5-yl]piperazin-1-yl]-5-oxo-pentyl]-1,2,4-oxadiazol-3-yl]-5-methyl-3-pyridyl]urea], for which the CC50 in assay [1] is greater than 5000 nM. The EC50 in assay [2] is no more than 0.2 µM.
Regarding `O=C1CCC(N2Cc3cc(N4CCN(C(=O)CCCCCc5nc(-c6ncc(NC(=O)Nc7cnc8ccnn8c7C7CCC7)cc6Cl)no5)CC4)ccc3C2=O)C(=O)N1` (stereo not shown) [Compound 116, 1-[5-chloro-6-[5-[6-[4-[2-(2,6-dioxo-3-piperidyl)-1-oxo-isoindolin-5-yl]piperazin-1-yl]-6-oxo-hexyl]-1,2,4-oxadiazol-3-yl]-3-pyridyl]-3-(7-cyclobutylpyrazolo[1,5-a]pyrimidin-6-yl)urea], the 50% cytotoxic concentration (CC50) in assay [1] is less than 500 nM. Also, in assay [2], the concentration for a half-maximal effect (EC50) was no more than 0.2 µM.
As to `O=C1CCC(N2Cc3cc(N4CCN(C(=O)CCCCCc5nc(-c6ncc(NC(=O)Nc7cnc8ccnn8c7C7CCCCC7)cc6Cl)no5)CC4)ccc3C2=O)C(=O)N1` (stereo not shown) [Compound 118, 1-[5-chloro-6-[5-[6-[4-[2-(2,6-dioxo-3-piperidyl)-1-oxo-isoindolin-5-yl]piperazin-1-yl]-6-oxo-hexyl]-1,2,4-oxadiazol-3-yl]-3-pyridyl]-3-(7-cyclohexylpyrazolo[1,5-a]pyrimidin-6-yl)urea], the CC50 in assay [1] was less than 500 nM. In assay [2], the EC50 was no more than 0.2 µM.
Regarding `O=C1CCC(N2Cc3cc(N4CCN(CCCCCCc5nc(-c6ncc(NC(=O)Nc7cnc8ccnn8c7C7CCCCC7)cc6Cl)no5)CC4)ccc3C2=O)C(=O)N1` (stereo not shown) [Compound 119, 1-[5-chloro-6-[5-[6-[4-[2-(2,6-dioxo-3-piperidyl)-1-oxo-isoindolin-5-yl]piperazin-1-yl]hexyl]-1,2,4-oxadiazol-3-yl]-3-pyridyl]-3-(7-cyclohexylpyrazolo[1,5-a]pyrimidin-6-yl)urea], the CC50 in assay [1] was less than 500 nM. For the same compound, in assay [2], the EC50 was no more than 0.2 µM.
Take `O=C1CCC(N2Cc3cc(N4CCN(C(=O)CCCc5nc(-c6ncc(NC(=O)Nc7cnc8ccnn8c7C7CCCCC7)cc6Cl)no5)CC4)ccc3C2=O)C(=O)N1` (stereo not shown) [Compound 120, 1-[5-chloro-6-[5-[4-[4-[2-(2,6-dioxo-3-piperidyl)-1-oxo-isoindolin-5-yl]piperazin-1-yl]-4-oxo-butyl]-1,2,4-oxadiazol-3-yl]-3-pyridyl]-3-(7-cyclohexylpyrazolo[1,5-a]pyrimidin-6-yl)urea]: the CC50 in assay [1] was less than 500 nM. Moreover, in assay [2], the concentration for a half-maximal effect (EC50) is no more than 0.2 µM.
As to `Cc1cc(NC(=O)Nc2cnc3ccnn3c2C2CCCCC2)cnc1-c1noc(CCCCCCN2CCN(c3ccc4c(c3)CN(C3CCC(=O)NC3=O)C4=O)CC2)n1` (stereo not shown) [Compound 122, 1-(7-cyclohexylpyrazolo[1,5-a]pyrimidin-6-yl)-3-[6-[5-[6-[4-[2-(2,6-dioxo-3-piperidyl)-1-oxo-isoindolin-5-yl]piperazin-1-yl]hexyl]-1,2,4-oxadiazol-3-yl]-5-methyl-3-pyridyl]urea], in assay [1], the CC50 was less than 500 nM. Also, in assay [2], the 50% effective concentration (EC50) is no more than 0.2 µM.
Regarding `Cc1cc(NC(=O)Nc2cnc3ccnn3c2C2CCCCC2)cnc1-c1noc(CCCC(=O)Nc2ccc3c(c2)CN(C2CCC(=O)NC2=O)C3=O)n1` (stereo not shown) [Compound 123, 4-[3-[5-[(7-cyclohexylpyrazolo[1,5-a]pyrimidin-6-yl)carbamoylamino]-3-methyl-2-pyridyl]-1,2,4-oxadiazol-5-yl]-N-[2-(2,6-dioxo-3-piperidyl)-1-oxo-isoindolin-5-yl]butanamide], the half-maximal cytotoxic concentration (CC50) in assay [1] is less than 500 nM. In addition, in assay [2], the EC50 is no more than 0.2 µM.
